Experimental data reported in the supplement of paper PMC11208160.

Test: recombinant barcode read abundance after kanamycin selection (control-corrected) (log10(CPM+1)); higher = more efficient recombination; sequences stand for … in AGTGCAGAGAAAATCGGCCAGTTTTCTCTGCCTGCAGTCCGCATGCCGT…AGATTTATGCAGCGGACTGCCTTTCTCCCAAAGTGATAAACCGGACAGTATCATGGACCGGTTTTCCCGGTAATCCGTATTTGCAAGGTTGGTTTCACT; site = the 11-nt target
Experimental: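 Pooled E. coli target-specificity screen for the IS621 bridge recombinase. Each library plasmid pairs an 11-nt target (CT core) with a bridge RNA whose target-binding loop (9-nt LTG + 4-nt RTG) is reprogrammed; the rest of the 177-nt WT IS621 bridge RNA scaffold is fixed. The plasmid is co-electroporated with a WT donor plasmid; recombinase is induced with 0.1 mM IPTG and recombinants are selected on kanamycin. Recombinant barcodes are sequenced, converted to CPM, averaged over two biological replicates and corrected by the unselected control CPM. Molecule = full bridge RNA written as DNA: LTG = specificity nt 1-9, RTG = reverse complement of specificity nt 8-11, in the WT scaffold.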
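Also: IS621 recombinase and bridge RNA in Escherichia coli cells.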

First: ACTCAGACTTGGGTTCTAACCTGTTGCAC (site GGAGGTCCTCG)
Second: ACTCCAGCTTGGGTTCTAACCTGTTGCCT (site ACTCCAGCTAG)
The “recombinant barcode read abundance (log10)” value of the first is lower: 0.222 for the first, 1.79 for the second.

Compared with “ACTCCAGCTTGGGTTCTAACCTGTTGCCT (site TAGTTTACTCT)”, “ACTCGTTCTTGGGTTCTAACCTGTTGCTT (site ACTCGTTCTAA)” is higher in “recombinant barcode read abundance (log10)” value: 0.0793 for the first, 0.326 for the second.

“ACTCGTTCTTGGGTTCTAACCTGTTGCTT (site GCTAGTTCTAA)” and “ACTCTACCTTGGGTTCTAACCTGTTGCTA (site ACCCTCCCTTA)” are within 0.2 log units of each other in “recombinant barcode read abundance (log10)” value: 0.0673 for the first, 0.0533 for the second.

“ACTCTACCTTGGGTTCTAACCTGTTGCTA (site ACTCTACCTTA)” and “ACTCTAGCTTGGGTTCTAACCTGTTGCTC (site ACTCTAGCTGA)” are within 0.2 log units of each other in “recombinant barcode read abundance (log10)” value: 1.12 for the first, 1.05 for the second.

“ACTCTAGCTTGGGTTCTAACCTGTTGCTC (site GCTCTAGCTTA)” and “ACTCTGTCTTGGGTTCTAACCTGTTGCTT (site ACCCTATCTAA)” are within 0.2 log units of each other in “recombinant barcode read abundance (log10)” value: 0.265 for the first, 0.124 for the second.

Going from “ACTCTGTCTTGGGTTCTAACCTGTTGCTT (site ACTCTGTCTAA)” to “ACTGATGCTTGGGTTCTAACCTGTTGCCT (site ACTGATACTAG)”, the “recombinant barcode read abundance (log10)” value falls from 1.86 to 1.08.

Going from “ACTGATGCTTGGGTTCTAACCTGTTGCCT (site ACTGATCCTAG)” to “ACTGATGCTTGGGTTCTAACCTGTTGCCT (site ACTGATGCTAG)”, the “recombinant barcode read abundance (log10)” value rises from 0.0449 to 2.09.

Compared with “ACTGATGCTTGGGTTCTAACCTGTTGCCT (site ACTGATTCTAG)”, “ACTGTATCTTGGGTTCTAACCTGTTGCCT (site ACTGTATCTAG)” is higher in “recombinant barcode read abundance (log10)” value: 0.0409 for the first, 1.13 for the second.

“ACTGTATCTTGGGTTCTAACCTGTTGCCT (site CCTGTATCTAG)” and “ACTGTATCTTGGGTTCTAACCTGTTGCCT (site GCTGTATCTAG)” are within 0.2 log units of each other in “recombinant barcode read abundance (log10)” value: 0.134 for the first, 0.0734 for the second.

Going from “ACTGTATCTTGGGTTCTAACCTGTTGCCT (site TCTGTATCTAG)” to “ACTGTCACTTGGGTTCTAACCTGTTGCCT (site ACTGTCACTAG)”, the “recombinant barcode read abundance (log10)” value rises from 0.231 to 2.36.

Going from “ACTGTCACTTGGGTTCTAACCTGTTGCCT (site ACTGTGACTAG)” to “ACTGTGACTTGGGTTCTAACCTGTTGCCT (site ACTGTCACTAG)”, the “recombinant barcode read abundance (log10)” value rises from 0.0913 to 0.317.

First: ACTGTGACTTGGGTTCTAACCTGTTGCCT (site ACTGTGACTAG)
Second: ACTTAGACTTGGGTTCTAACCTGTTGCCC (site ACTTAGACTAG)
The “recombinant barcode read abundance (log10)” value of the first is higher: 2.71 for the first, 0.424 for the second.

First: ACTTAGACTTGGGTTCTAACCTGTTGCCC (site ACTTAGACTCG)
Second: ACTTAGACTTGGGTTCTAACCTGTTGCCC (site ACTTAGACTGG)
The “recombinant barcode read abundance (log10)” value of the first is lower: 0.333 for the first, 1.46 for the second.

Compared with “ACTTAGACTTGGGTTCTAACCTGTTGCCC (site ACTTAGACTTG)”, “ACTTAGTCTTGGGTTCTAACCTGTTGCTC (site ACTTAGTCTGA)” is higher in “recombinant barcode read abundance (log10)” value: 0 for the first, 1.04 for the second.

“ACTTAGTCTTGGGTTCTAACCTGTTGCTC (site TGCCCCGCTAG)” and “ACTTCAACTTGGGTTCTAACCTGTTGCCT (site ACATCAACTAG)” are within 0.2 log units of each other in “recombinant barcode read abundance (log10)” value: 0.0305 for the first, 0.0253 for the second.

“ACTTCAACTTGGGTTCTAACCTGTTGCCT (site ACCTCAACTAG)” and “ACTTCAACTTGGGTTCTAACCTGTTGCCT (site ACGTCAACTAG)” are within 0.2 log units of each other in “recombinant barcode read abundance (log10)” value: 0.026 for the first, 0.161 for the second.

Compared with “ACTTCAACTTGGGTTCTAACCTGTTGCCT (site ACTTCAACTAG)”, “ACTTCACCTTGGGTTCTAACCTGTTGCCT (site ACTTCACCTAG)” is higher in “recombinant barcode read abundance (log10)” value: 0.101 for the first, 1.02 for the second.

“ACTTCACCTTGGGTTCTAACCTGTTGCCT (site ACTTCTGCTAG)” and “ACTTCTACTTGGGTTCTAACCTGTTGCCG (site ACTTCTACTCG)” are within 0.2 log units of each other in “recombinant barcode read abundance (log10)” value: 0.0689 for the first, 0.195 for the second.

Compared with “ACTTCTACTTGGGTTCTAACCTGTTGCCG (site ACTTCTTCTAG)”, “ACTTGACCTTGGGTTCTAACCTGTTGCGG (site ACTTGACCTCC)” is higher in “recombinant barcode read abundance (log10)” value: 0.204 for the first, 2.31 for the second.

“ACTTGACCTTGGGTTCTAACCTGTTGCGG (site AGTTAACCTCC)” and “ACTTGCCCTTGGGTTCTAACCTGTTGCCT (site AATTGCCCTAG)” are within 0.2 log units of each other in “recombinant barcode read abundance (log10)” value: 0 for the first, 0.0465 for the second.

Going from “ACTTGCCCTTGGGTTCTAACCTGTTGCCT (site ACTTGCCCTAG)” to “ACTTGCCCTTGGGTTCTAACCTGTTGCCT (site AGTTGCCCTAG)”, the “recombinant barcode read abundance (log10)” value falls from 0.925 to 0.00674.

Compared with “ACTTGCCCTTGGGTTCTAACCTGTTGCCT (site ATTTGCCCTAG)”, “ACTTTGTCTTGGGTTCTAACCTGTTGCCT (site ACATTGTCTAG)” is lower in “recombinant barcode read abundance (log10)” value: 0.57 for the first, 0.0289 for the second.

“ACTTTGTCTTGGGTTCTAACCTGTTGCCT (site ACCTTGTCTAG)” and “ACTTTGTCTTGGGTTCTAACCTGTTGCCT (site ACGTTGTCTAG)” are within 0.2 log units of each other in “recombinant barcode read abundance (log10)” value: 0.085 for the first, 0.0449 for the second.

Going from “ACTTTGTCTTGGGTTCTAACCTGTTGCCT (site ACTTTGTCTAG)” to “AGAAACACTTGGGTTCTAACCTGTTGCCT (site AGAAACACTAG)”, the “recombinant barcode read abundance (log10)” value rises from 0.596 to 1.34.

Compared with “AGAAACACTTGGGTTCTAACCTGTTGCCT (site AGGAACACTAG)”, “AGAAATTCTTGGGTTCTAACCTGTTGCCT (site AGAAATTCTAG)” is higher in “recombinant barcode read abundance (log10)” value: 0.0546 for the first, 0.52 for the second.

“AGAAATTCTTGGGTTCTAACCTGTTGCCT (site AGCAATTCTAG)” and “AGAAATTCTTGGGTTCTAACCTGTTGCCT (site AGGAATTCTAG)” are within 0.2 log units of each other in “recombinant barcode read abundance (log10)” value: 0.0252 for the first, 0.111 for the second.

First: AGAAATTCTTGGGTTCTAACCTGTTGCCT (site AGTAATTCTAG)
Second: AGAAGTCCTTGGGTTCTAACCTGTTGCTG (site AGAAGTCCTCA)
The “recombinant barcode read abundance (log10)” value of the first is lower: 0.0316 for the first, 1.11 for the second.

“AGAAGTCCTTGGGTTCTAACCTGTTGCTG (site AGAAGTCCTCC)” and “AGAAGTCCTTGGGTTCTAACCTGTTGCTG (site AGAAGTCCTCG)” are within 0.2 log units of each other in “recombinant barcode read abundance (log10)” value: 0.0845 for the first, 0.0922 for the second.

Compared with “AGAAGTCCTTGGGTTCTAACCTGTTGCTG (site AGAAGTCCTCT)”, “AGAATCCCTTGGGTTCTAACCTGTTGCTA (site AGAATCCCTTA)” is higher in “recombinant barcode read abundance (log10)” value: 0.773 for the first, 1.74 for the second.

Compared with “AGAATCCCTTGGGTTCTAACCTGTTGCTA (site GCAATCCCTTA)”, “AGACGTCCTTGGGTTCTAACCTGTTGCGT (site AGACGTCCTAC)” is higher in “recombinant barcode read abundance (log10)” value: 0.106 for the first, 2.51 for the second.

Compared with “AGACGTCCTTGGGTTCTAACCTGTTGCGT (site ATACGTCCTAT)”, “AGACTAACTTGGGTTCTAACCTGTTGCTT (site AGACTAACTAA)” is higher in “recombinant barcode read abundance (log10)” value: 0.233 for the first, 0.715 for the second.

Going from “AGACTAACTTGGGTTCTAACCTGTTGCTT (site GGACTAACTAG)” to “AGACTCTCTTGGGTTCTAACCTGTTGCCT (site AGACTCTCTAG)”, the “recombinant barcode read abundance (log10)” value rises from 0.0387 to 2.01.

Going from “AGACTCTCTTGGGTTCTAACCTGTTGCCT (site ATACTCTCTAG)” to “AGACTTCCTTGGGTTCTAACCTGTTGCTT (site AGACATCCTAA)”, the “recombinant barcode read abundance (log10)” value falls from 0.377 to 0.158.

“AGACTTCCTTGGGTTCTAACCTGTTGCTT (site AGACCTCCTAA)” and “AGACTTCCTTGGGTTCTAACCTGTTGCTT (site AGACGTCCTAA)” are within 0.2 log units of each other in “recombinant barcode read abundance (log10)” value: 0.121 for the first, 0.0179 for the second.

First: AGACTTCCTTGGGTTCTAACCTGTTGCTT (site AGACTTCCTAA)
Second: AGAGAGTCTTGGGTTCTAACCTGTTGCCT (site AGAAAGTCTAC)
The “recombinant barcode read abundance (log10)” value of the first is higher: 0.811 for the first, 0.0903 for the second.

Going from “AGAGAGTCTTGGGTTCTAACCTGTTGCCT (site AGAGAGTCTAG)” to “AGAGGGTCTTGGGTTCTAACCTGTTGCCT (site AAAGGGTCTAG)”, the “recombinant barcode read abundance (log10)” value falls from 2.53 to 0.21.

Compared with “AGAGGGTCTTGGGTTCTAACCTGTTGCCT (site ACAGGGTCTAG)”, “AGAGGGTCTTGGGTTCTAACCTGTTGCCT (site AGAGGGTCTAG)” is higher in “recombinant barcode read abundance (log10)” value: 0.731 for the first, 2.79 for the second.

Going from “AGAGGGTCTTGGGTTCTAACCTGTTGCCT (site ATAGGGTCTAG)” to “AGAGGTCCTTGGGTTCTAACCTGTTGCCT (site AGAGGTCCTAG)”, the “recombinant barcode read abundance (log10)” value rises from 0.765 to 2.04.

Going from “AGAGGTCCTTGGGTTCTAACCTGTTGCCT (site TGAGGGCCTAG)” to “AGAGTGACTTGGGTTCTAACCTGTTGCCT (site AGAGAGACTAG)”, the “recombinant barcode read abundance (log10)” value rises from 0.169 to 1.

“AGAGTGACTTGGGTTCTAACCTGTTGCCT (site AGAGCGACTAG)” and “AGAGTGACTTGGGTTCTAACCTGTTGCCT (site AGAGGGACTAG)” are within 0.2 log units of each other in “recombinant barcode read abundance (log10)” value: 0.0794 for the first, 0.0448 for the second.

Going from “AGAGTGACTTGGGTTCTAACCTGTTGCCT (site AGAGTGACTAG)” to “AGATTCACTTGGGTTCTAACCTGTTGCCT (site AGATTCACTAG)”, the “recombinant barcode read abundance (log10)” value falls from 1.69 to 0.994.
